From ChEMBL document CHEMBL1139228, “Saliniketals A and B, bicyclic polyketides from the marine actinomycete Salinispora arenicola” (J Nat Prod, 2007)
The source made the active and inactive calls. The rule behind the calls is not given here.

Assays:
[1] = molecular target: T1, Ornithine decarboxylase (Homo sapiens) (UniProt P11926); assay: Inhibition of ornithine decarboxylase induction expressed in T24 cells; assay type: cell-based; conditions: T-24
T1 sequence (whole entry): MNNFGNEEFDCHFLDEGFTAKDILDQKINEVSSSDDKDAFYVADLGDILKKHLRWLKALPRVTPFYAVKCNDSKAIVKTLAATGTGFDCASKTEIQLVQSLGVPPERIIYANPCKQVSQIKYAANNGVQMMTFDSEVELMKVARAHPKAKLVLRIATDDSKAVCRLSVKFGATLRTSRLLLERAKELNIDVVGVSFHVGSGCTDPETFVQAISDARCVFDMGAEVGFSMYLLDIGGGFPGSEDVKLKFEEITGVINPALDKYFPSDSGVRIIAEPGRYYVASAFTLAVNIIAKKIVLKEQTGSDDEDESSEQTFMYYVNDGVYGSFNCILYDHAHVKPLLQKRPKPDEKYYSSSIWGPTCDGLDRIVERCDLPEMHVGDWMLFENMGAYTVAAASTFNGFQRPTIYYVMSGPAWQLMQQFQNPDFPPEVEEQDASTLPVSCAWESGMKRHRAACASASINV

[2] = molecular target: T1, Ornithine decarboxylase (Homo sapiens); assay: Inhibition of ornithine decarboxylase upto 1 mM
[3] = Inhibition of DNA dependent RNA polymerase in prokaryotes

Activity [1]	Activity [2]	Activity [3]	SMILES
inactive	inactive		C/C(=C/C=C/[C@H](C)[C@H](O)[C@@H](C)[C@@H](O)[C@@H](C)[C@@H]1O[C@@]2(C)CC[C@@H](O2)[C@H]1C)C(N)=O
		Active	CO[C@H]1/C=C/O[C@@]2(C)Oc3c(C)c(O)c4c(O)c(cc(O)c4c3C2=O)NC(=O)/C(C)=C\C=C\[C@H](C)[C@H](O)[C@@H](C)[C@@H](O)[C@@H](C)[C@H](OC(C)=O)[C@@H]1C
inactive	inactive		C[C@H]([C@H](O)[C@H](C)[C@@H](O)[C@@H](C)/C=C/C=C(/CO)C(N)=O)[C@@H]1O[C@@]2(C)CC[C@@H](O2)[C@H]1C
